Source: US20100285959A1, “HERBICIDAL MIXTURES” (priority 2006, published 2010)

Key:
[1] = tested on: Pennsylvania smartweed (POLPY); assay: Test 8 field trial, preemergence; assay type: in vivo, Polygonum pensylvanicum
Excerpt: (§1) Corn seeds (hybrid ‘Pioneer 31G96’) were planted in mid spring season, 3.8 cm deep in a clay loam soil having 2% organic matter and a pH of 6.6. Plots were 6.1 m long by 3.0 m wide with rows spaced 76 cm apart. Seeds were spaced 15 cm apart within the rows. The field was managed using conventional tillage practices. […] A few of the weed species could not be evaluated at every timing. […] Results are the means of the three replicates.

[2] = tested on: field pennycress (THLAR); assay: Test 5 field trial, postemergence; assay type: in vivo, Thlaspi arvense; conditions: atrazine 1120, glufosinate 470 or glyphosate 1120 g a.i./ha alone
Excerpt: (§2) Corn seeds (hybrid ‘Pioneer 38H69’) were planted in mid spring season, 5.1 cm deep in a silty clay loam soil having 3% organic matter and a pH of 6.5. Plots were 9.1 m long by 3.0 m wide with rows spaced 76 cm apart. The field was managed using conventional tillage practices. […] All treatments included a surfactant except glufosinate treatments, both alone and in combination. […] Results are summarized in Table 5 and are the means of the three replicates.

[3] = tested on: redroot pigweed (AMARE); assay: Test 8 field trial, preemergence; assay type: in vivo, Amaranthus retroflexus; conditions: 56 DAA; g a.i./ha: Cpd 2 100, Atrazine 1680, S-Metolachlor 1870
Excerpt: as §1

[4] = tested on: southern sandbur (CCHEC); assay: Test 11 field trial, preemergence; assay type: in vivo, Cenchrus echinatus; design: scale not given here
Excerpt: (§3) Corn seeds (hybrid ‘Pioneer 3041’) were planted in mid spring season, 5 cm deep in a clay soil having 2.6% organic matter and a pH of 5.6. Plots were 8 m long by 1.5 m wide with rows spaced 80 cm apart. Seeds were spaced 15 cm apart within the rows. The field was managed using conventional tillage practices. […] Treatments consisted of Compound 2 or
(§4) Goosegrass was not evaluated 16 or 91 days after application.

[5] = tested on: redroot pigweed (AMARE); assay: Test 6 field trial, postemergence; assay type: in vivo, Amaranthus retroflexus; conditions: 1120 g a.i./ha
Excerpt: Corn seeds (hybrid ‘Pioneer 35Y62’) were planted in mid spring season, 3.8 cm deep in a silt loam soil having 4% organic matter and a pH of 5.8. Plots were 10.7 m long by 1.5 m wide with rows spaced 76 cm apart. Seeds were spaced 18 cm apart within the rows. The field was managed using conventional tillage practices. […] All treatments included a surfactant except glufosinate treatments, both alone and in combination. […] Results are summarized in Table 6 and are the means of the three replicates.

[6] = tested on: velvetleaf (ABUTH); assay: Test 1 field trial, preemergence; assay type: in vivo, Abutilon theophrasti; design: scale not given here; conditions: g a.i./ha: Atrazine 1680, S-Metolachlor 1870
Excerpt: (§5) Corn seeds (hybrid ‘Pioneer 34N43’) were planted in mid spring season, 3.8 cm deep in a silt loam soil having 4.6% organic matter and a pH of 6. Plots were 10.7 m long by 1.5 m wide with rows spaced 76 cm apart. Seeds were spaced 18 cm apart within the rows. The field was managed using conventional tillage practices. […] Results are summarized in Table 1 and are the means of the three replicates. […] Colby's Equation (Colby, S. R. “Calculating Synergistic and Antagonistic Responses of Herbicide Combinations,” Weeds, 15(1), pp 20-22 (1967)) calculates the expected additive effect of herbicidal mixtures, and for two active ingredients is of the form:
(§6) Pa+b=Pa+Pb−(PaPb/100) • wherein Pa+b is the percentage effect of the mixture expected from additive contribution of the individual components, • Pa is the observed percentage effect of the first active ingredient at the same use rate as in the mixture, and • Pb is the observed percentage effect of the second active ingredient at the same use rate as in the mixture.

[7] = tested on: jimsonweed (DATST); assay: Test 8 field trial, preemergence; assay type: in vivo, Datura stramonium; conditions: g a.i./ha: Cpd 2 100, Atrazine 1680, S-Metolachlor 1870
Excerpt: as §1

[8] = tested on: Pennsylvania smartweed (POLPY); assay: Test 1 field trial, preemergence; assay type: in vivo, Polygonum pensylvanicum; conditions: g a.i./ha: Atrazine 1680, S-Metolachlor 1870
Excerpt: as §5, §6

[9] = tested on: common lambsquarters (CHEAL); assay: Test 5 field trial, postemergence; assay type: in vivo, Chenopodium album; conditions: atrazine 1120, glufosinate 470 or glyphosate 1120 g a.i./ha alone
Excerpt: as §2

[10] = tested on: Ipomoea grandiflora (IPOGF); assay: Test 11 field trial, preemergence; assay type: in vivo
Excerpt: as §3, §4

[11] = tested on: corn (ZEAMD); assay: Test 8 field trial, preemergence; assay type: in vivo, Zea mays ssp. indentata; conditions: g a.i./ha: Cpd 2 100, Atrazine 1680, S-Metolachlor 1870
Excerpt: as §1

[12] = tested on: velvetleaf (ABUTH); assay: Test 5 field trial, postemergence; assay type: in vivo, Abutilon theophrasti; conditions: atrazine 1120, glufosinate 470 or glyphosate 1120 g a.i./ha alone
Excerpt: as §2

[13] = tested on: common ragweed (AMBEL); assay: Test 8 field trial, preemergence; assay type: in vivo, Ambrosia artemisiifolia; conditions: g a.i./ha: Cpd 2 100, Atrazine 1680, S-Metolachlor 1870
Excerpt: as §1

[14] = tested on: goosegrass (ELEIN); assay: Test 11 field trial, preemergence; assay type: in vivo, Eleusine indica
Excerpt: as §3, §4

[15] = 29 DAA, g a.i./ha: Cpd 2 100, Atrazine 1680, S-Metolachlor 1870
[16] = 16 DAA, atrazine 1500 or metolachlor 2500 g a.i./ha alone
[17] = 30 DAA, atrazine 1500 or metolachlor 2500 g a.i./ha alone
[18] = 44 DAA, atrazine 1500 or metolachlor 2500 g a.i./ha alone
[19] = 62 DAA, 1500 g a.i./ha, scale 0 to 100
[20] = 16 DAA, Cpd 2/Cpd 1 at 62 g a.i./ha, alone or + atrazine 1500 or metolachlor 2500
[21] = 16 DAA, Cpd 2/Cpd 1 at 125 g a.i./ha, alone or + atrazine 1500 or metolachlor 2500
[22] = 30 DAA, Cpd 2/Cpd 1 at 62 g a.i./ha, alone or + atrazine 1500 or metolachlor 2500
[23] = 30 DAA, Cpd 2/Cpd 1 at 125 g a.i./ha, alone or + atrazine 1500 or metolachlor 2500
[24] = 44 DAA, 62 g a.i./ha, scale 0 to 100
[25] = 44 DAA, 125 g a.i./ha, scale 0 to 100
[26] = 62 DAA, 62 g a.i./ha, scale 0 to 100
[27] = 62 DAA, 125 g a.i./ha, scale 0 to 100

CCNc1nc(Cl)nc(NC(C)C)n1 [Atrazine, atrazine, reference compound]
POLPY Obs [1, 15]: 100% | POLPY Obs ([1]; 56 DAA, g a.i./ha: Cpd 2 100, Atrazine 1680): 100% | THLAR Obs ([2]; 16 DAA): 95% | THLAR Obs ([2]; 31 DAA): 100% | AMARE Obs [3]: 100% | CCHEC Obs [4, 16]: 60 | CCHEC Obs [4, 17]: 40 | CCHEC Obs [4, 18]: 40 | CCHEC Obs ([4]; 62 DAA, atrazine 1500 or metolachlor 2500 g a.i./ha alone): 0 | CCHEC Obs ([4]; 91 DAA, atrazine 1500 or metolachlor 2500 g a.i./ha alone): 0 | AMARE Obs ([5]; 14 DAA): 100% | AMARE Obs ([5]; 28 DAA): 100% | ABUTH Obs ([6]; 28 DAA): 75 | ABUTH Obs ([6]; 56 DAA): 0 | DATST Obs ([7]; 19 DAA): 53% | DATST Obs ([7]; 29 DAA): 100% | DATST Obs ([7]; 56 DAA): 100% | POLPY Obs ([8]; 28 DAA): 93 | POLPY Obs ([8]; 56 DAA): 100 | CHEAL Obs ([9]; 16 DAA): 79% | CHEAL Obs ([9]; 31 DAA): 70% | IPOGF Obs [10, 16]: 97 | IPOGF Obs [10, 17]: 97 | IPOGF Obs [10, 18]: 70 | IPOGF Obs [10, 19]: 50 | IPOGF Obs ([10]; 91 DAA, 1500 g a.i./ha, scale 0 to 100): 40 | ZEAMD Obs ([11]; 19 DAA): 5% | ZEAMD Obs ([11]; 29 DAA): 2% | ZEAMD Obs ([11]; 56 DAA): 3% | ABUTH Obs ([12]; 16 DAA): 40% | ABUTH Obs ([12]; 31 DAA): 13% | AMBEL Obs ([13]; 19 DAA): 83% | AMBEL Obs ([13]; 29 DAA): 98% | AMBEL Obs ([13]; 56 DAA): 100% | ELEIN Obs [14, 17]: 95 | ELEIN Obs [14, 18]: 100 | ELEIN Obs [14, 19]: 100

Nc1nc(C2CC2)nc(C(=O)O)c1Cl [Compound 1, 6-amino-5-chloro-2-cyclopropyl-4-pyrimidinecarboxylic acid]
CCHEC Obs [4, 20]: 40 | CCHEC Obs [4, 21]: 40 | CCHEC Obs [4, 22]: 20 | CCHEC Obs [4, 23]: 20 | CCHEC Obs ([4]; 44 DAA, Cpd 2/Cpd 1 at 62 g a.i./ha, alone or + atrazine 1500 or metolachlor 2500): 0 | CCHEC Obs ([4]; 44 DAA, Cpd 2/Cpd 1 at 125 g a.i./ha, alone or + atrazine 1500 or metolachlor 2500): 40 | CCHEC Obs ([4]; 62 DAA, Cpd 2/Cpd 1 at 62 g a.i./ha, alone or + atrazine 1500 or metolachlor 2500): 0 | CCHEC Obs ([4]; 62 DAA, Cpd 2/Cpd 1 at 125 g a.i./ha, alone or + atrazine 1500 or metolachlor 2500): 0 | CCHEC Obs ([4]; 91 DAA, Cpd 2/Cpd 1 at 62 g a.i./ha, alone or + atrazine 1500 or metolachlor 2500): 0 | CCHEC Obs ([4]; 91 DAA, Cpd 2/Cpd 1 at 125 g a.i./ha, alone or + atrazine 1500 or metolachlor 2500): 0 | IPOGF Obs [10, 20]: 20 | IPOGF Obs [10, 21]: 40 | IPOGF Obs [10, 22]: 40 | IPOGF Obs [10, 23]: 80 | IPOGF Obs [10, 24]: 60 | IPOGF Obs [10, 25]: 80 | IPOGF Obs [10, 26]: 0 | IPOGF Obs [10, 27]: 75 | IPOGF Obs ([10]; 91 DAA, 62 g a.i./ha, scale 0 to 100): 0 | IPOGF Obs ([10]; 91 DAA, 125 g a.i./ha, scale 0 to 100): 60 | ELEIN Obs [14, 22]: 0 | ELEIN Obs [14, 23]: 20 | ELEIN Obs [14, 24]: 0 | ELEIN Obs [14, 25]: 0 | ELEIN Obs [14, 26]: 0 | ELEIN Obs [14, 27]: 0

O=C(O)CNCP(=O)(O)O [Glyphosate]
THLAR Obs ([2]; 16 DAA): 98% | THLAR Obs ([2]; 31 DAA): 100% | AMARE Obs ([5]; 14 DAA): 100% | AMARE Obs ([5]; 28 DAA): 100% | CHEAL Obs ([9]; 16 DAA): 100% | CHEAL Obs ([9]; 31 DAA): 97% | ABUTH Obs ([12]; 16 DAA): 84% | ABUTH Obs ([12]; 31 DAA): 84%

CCc1cccc(C)c1N(C(=O)CCl)[C@@H](C)COC [S-Metolachlor, S-metolachlor, reference compound]
POLPY Obs [1, 15]: 100% | AMARE Obs [3]: 100% | ABUTH Obs ([6]; 28 DAA): 33 | ABUTH Obs ([6]; 56 DAA): 0 | DATST Obs ([7]; 19 DAA): 40% | DATST Obs ([7]; 29 DAA): 38% | DATST Obs ([7]; 56 DAA): 52% | POLPY Obs ([8]; 28 DAA): 57 | POLPY Obs ([8]; 56 DAA): 20 | ZEAMD Obs ([11]; 19 DAA): 0% | ZEAMD Obs ([11]; 29 DAA): 3% | ZEAMD Obs ([11]; 56 DAA): 5% | AMBEL Obs ([13]; 19 DAA): 32% | AMBEL Obs ([13]; 29 DAA): 23% | AMBEL Obs ([13]; 56 DAA): 23%
